System: male guinea pigs
Experiment: Confirmation test for reduction effects on heart rate
Type: in vivo
Settings: anesthetized guinea pigs, intravenous (vein of penis), 0.03 mg/kg
Description: Confirmation Test for Reduction Effects on Heart Rate
Effects on heart rate of a test compound and fingolimod, which is an S1P1 receptor agonist, were confirmed using male guinea pigs (Japan SLC, 5 to 8-weeks-old in use). Guinea pigs were incised in the median line of cervical region under anesthesia with pentobarbital (Kyoritsu Pharmaceutical) by intraperitoneal administration. A PE90 catheter filled with saline (Otsuka Pharmaceutical Factory) containing 50 units/mL heparin (Mochida Pharmaceutical) was inserted to right common carotid artery. By holding the insertion site of the catheter with silk sutures, it was performed to avoid bleeding from the insertion site and to fix the catheter. After it was confirmed that blood flow reached into the catheter, an apical end of catheter opposite to the insertion site of artery was connected to pressure transducer, and blood pressure and heart rate were measured via a strain pressure amplifier and a heart rate counter unit, respectively. […]
After it was confirmed that blood pressure and heart rate were stabilized in guinea pigs, vehicle, the test compound or fingolimod was administered into the vein of penis at 0.25 mL/kg using 1 mL syringes with needles of 27G. The changes of blood pressure and heart rate were measured every 5 minutes after administration of vehicle, the test compound or fingolimod.

CCCCCCCCc1ccc(CCC(N)(CO)CO)cc1 [fingolimod]
effect on heart rate: remarkable reduction of heart rate
